Biological target: T1, SHP2 protein (Homo sapiens, UniProt Q06124)
T1 sequence (Q06124 1-593): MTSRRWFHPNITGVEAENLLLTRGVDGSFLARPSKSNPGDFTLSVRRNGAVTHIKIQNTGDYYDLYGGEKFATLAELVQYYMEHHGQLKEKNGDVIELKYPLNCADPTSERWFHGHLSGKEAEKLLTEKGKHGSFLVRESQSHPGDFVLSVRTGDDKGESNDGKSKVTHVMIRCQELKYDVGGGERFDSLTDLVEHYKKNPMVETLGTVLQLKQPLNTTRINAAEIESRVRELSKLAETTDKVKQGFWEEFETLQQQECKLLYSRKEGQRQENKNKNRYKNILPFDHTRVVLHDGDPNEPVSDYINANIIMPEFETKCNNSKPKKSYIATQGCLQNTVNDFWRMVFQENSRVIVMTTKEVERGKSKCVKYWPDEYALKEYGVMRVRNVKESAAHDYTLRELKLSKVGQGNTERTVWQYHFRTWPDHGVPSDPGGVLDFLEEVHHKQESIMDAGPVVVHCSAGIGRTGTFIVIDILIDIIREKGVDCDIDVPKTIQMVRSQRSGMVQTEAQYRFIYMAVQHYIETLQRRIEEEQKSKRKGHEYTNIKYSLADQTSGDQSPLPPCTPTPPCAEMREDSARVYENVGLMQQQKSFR
Experiment: Measurement of SHP2 protein degradation in MV-4-11 cells (western blotting)
Assay type: cell-based
Set-up: endogenous in cells
Conditions: harvested after 24 hours
Description: MV-4-11 cells were treated with the synthesized Example compounds, and the amount of SHP2 protein present in the cells was measured using western blotting detection. The protocol for the experiment conducted using MV-4-11 cells is as follows.
[Culture] MV-4-11 cells were resuspended in IMDM MEDIUM (Hyclone, SH30228.01), 5% FBS (Hyclone, SV30207.02), 1% Penicillin-streptomycin (Welgene, LS 202-02) media and seeded at 1×10^6/mL in 12-well plates (1 mL each).
[Compound treatment]12-well plates were treated as follows. 10 mM stock dissolved in DMSO was serially diluted 1/100 or 1/10 with media, and the compounds were treated to the cells at a final concentration of 0.01, 0.1, 1 μM or 0.001, 0.01, 0.1 μM, and harvested after 24 hours. For the negative control group, DMSO diluted 1/100 or 1/1000 in media was added (3 μL DMSO+297 μL media or 1 μL DMSO+999 μL media).
[Harvest] Each well was pipetted with a 1 mL pipette, collected in a 1.5 mL microtube, and centrifuged (500 g, 5 min, 4° C.). The supernatant was removed, washed with PBS, and centrifuged again (500 g, 5 min, 4° C.). The supernatant was removed and a pellet was prepared.
[Cell lysis and sample preparation] Lysis buffer was prepared as follows. RIPA buffer (Biosesang, RC2038-050-00)+0.5 mM PMSF (SIGMA, P7626)+1× Protease/Phosphatase Inhibitor (Cell signaling, 5872S) were added at 50 μL per tube and incubated on ice for 30 minutes (vortexed at 0 and 30 minutes). After sonication (10 sec pulse, 30 sec rest, 5 cycles, 70% amplification) and centrifugation (15,000 g, 15 min, 4° C.), only the supernatant was transferred to a microtube. RIPA buffer 7.5 μL and sample 2.5 μL were added to a 96-well plate to dilute to 1/4, and then BCA Protein Assay Kit (iNtRON, 21071) A and B were mixed in a 50:1 ratio and 200 μL each was added. After that, the plate was incubated at 37° C. for 30 minutes and left at room temperature for 10 minutes. After shaking for 10 seconds with a SYNERGY H1 microplate reader from BioTek, the absorbance was measured at 562 nm. The protein was quantified using the measured value to prepare a sample, which was then incubated at 70° C. for 10 minutes. The sample buffer used at this time is a mixture of NuPAGE or Bolt 4× sample buffer (Invitrogen) and each 10× sample reducing agent according to the gel to be used, and RIPA buffer was used for protein dilution.
[Western blotting detection] Equal amounts of samples were loaded onto NuPAGE or Bolt Bis-tris 4-12% gradient gels and run (200 V, 35 min). This was transferred to […] NC membranes using Trans-blot Turbo (BIO-RAD) (1.3 A constant, 25 V limit, 15 min), and was blocked at room temperature for 1 hour with Skim milk or Intercept Blocking Buffer (LI-COR, 927-60001):0.1% TBST=1:1. Anti-SHPTP2 Mouse (1:500 in 2% BSA/0.2% TBST, size: 70 kDa, Santacruz sc-7384) was incubated overnight at 4° C., and Anti-GAPDH Rabbit (1:2,000 in 2% BSA/0.2% TBST, size: 37 kDa, CST #2118) was incubated at room temperature for 1.5 hours or 3 hours. After washing three times for 5 minutes each with 0.2% TBST washing buffer, secondary antibodies Anti-Mouse IgG (1:5,000 in 2% BSA/0.2% TBST, CST) and IRDye® 680RD Goat anti-Rabbit IgG Secondary Antibody (1:10,000 in 2% BSA/0.2% TBST, LI-COR 926-68071) were added, and incubated on a rocker at room temperature for 45 minutes. The resultants were washed five times for 5 minutes each with 0.2% TBST washing buffer, and detected using LI-COR's Odyssey. GAPDH was detected with a 700 nm channel, and SHPTP2 was detected using SuperSignal West Pico PLUS Chemiluminescent Substrate.

SHP2% degradation (0.01 μM) [%] | SHP2% degradation (0.1 μM) [%] | SMILES
81.9 | 99.9 | Cc1ncsc1-c1ccc([C@H](C)NC(=O)[C@@H]2C[C@@H](O)CN2C(=O)[C@@H](NC(=O)C2(F)CC2)C(C)(C)C)c(OC2CCN(C(=O)C3CCN(c4nccc(Sc5cnc(N6CCC(C)(CN)CC6)cn5)c4Cl)CC3)CC2)c1 [Example 86, (2S,4R)—N—((S)-1-(2-((1-(1-(4-((5-(4-(aminomethyl)-4-methylpiperidin-1-yl)pyrazin-2-yl)thio)-3-chloropyridin-2-yl)piperidine-4-carbonyl)piperidin-4-yl)oxy)-4-(4-methylthiazol-5-yl)phenyl)ethyl)-1-((S)-2-(1-fluorocyclopropane-1-carboxamido)-3,3-dimethylbutanoyl)-4-hydroxypyrrolidine-2-carboxamide]
74.2 | 99.8 | Cc1ncsc1-c1ccc(CNC(=O)[C@@H]2C[C@@H](O)CN2C(=O)[C@@H](NC(=O)C2(F)CC2)C(C)(C)C)c(O[C@H]2CC[C@H](C(=O)N3CCC(Nc4nccc(Sc5cnc(N6CCC(C)(CN)CC6)cn5)c4Cl)CC3)CC2)c1 [Example 23, (2S,4R)—N-(2-(((1R,4S)-4-(4-((4-((5-(4-(aminomethyl)-4-methylpiperidin-1-yl)pyrazin-2-yl)thio)-3-chloropyridin-2-yl)amino)piperidine-1-carbonyl)cyclohexyl)oxy)-4-(4-methylthiazol-5-yl)benzyl)-1-((S)-2-(1-fluorocyclopropane-1-carboxamido)-3,3-dimethylbutanoyl)-4-hydroxypyrrolidine-2-carboxamide]
67.3 | 97.6 | Cc1ncsc1-c1ccc(CNC(=O)[C@@H]2C[C@@H](O)CN2C(=O)[C@@H](NC(=O)C2(F)CC2)C(C)(C)C)c(OCCN2CCC(C(=O)N3CC(Nc4cccc(Sc5cnc(N6CCC(C)(CN)CC6)cn5)c4Cl)C3)CC2)c1 [Example 50, (2S,4R)—N-(2-(2-(4-(3-((3-((5-(4-(aminomethyl)-4-methylpiperidin-1-yl)pyrazin-2-yl)thio)-2-chlorophenyl)amino)azetidine-1-carbonyl)piperidin-1-yl)ethoxy)-4-(4-methylthiazol-5-yl)benzyl)-1-((S)-2-(1-fluorocyclopropane-1-carboxamido)-3,3-dimethylbutanoyl)-4-hydroxypyrrolidine-2-carboxamide]
86.1 | 99.9 | CC(=O)N[C@H](C(=O)N1C[C@H](O)C[C@H]1C(=O)NCc1ccc(-c2scnc2C)cc1O[C@H]1CC[C@H](C(=O)N2CC(Nc3cccc(Sc4cnc(N5CCC6(CC5)Cc5ccccc5[C@H]6N)cn4)c3Cl)C2)CC1)C(C)(C)C [Example 30, (2S,4R)-1-((S)-2-acetamido-3,3-dimethylbutanoyl)-N-(2-(((1R,4S)-4-(3-((3-((5-((S)-1-amino-1,3-dihydrospiro[indene-2,4′-piperidin]-1′-yl)pyrazin-2-yl)thio)-2-chlorophenyl)amino)azetidine-1-carbonyl)cyclohexyl)oxy)-4-(4-methylthiazol-5-yl)benzyl)-4-hydroxypyrrolidine-2-carboxamide]
−22.1 | 95.7 | Cc1ncsc1-c1ccc(CNC(=O)[C@@H]2C[C@@H](O)CN2C(=O)[C@@H](NC(=O)C2(F)CC2)C(C)(C)C)c(OC2CCN(C(=O)C3(C)CCN(c4nccc(Sc5cnc(N6CCC(C)(CN)CC6)cn5)c4Cl)CC3)CC2)c1 [Example 68, (2S,4R)—N-(2-((1-(1-(4-((5-(4-(aminomethyl)-4-methylpiperidin-1-yl)pyrazin-2-yl)thio)-3-chloropyridin-2-yl)-4-methylpiperidine-4-carbonyl)piperidin-4-yl)oxy)-4-(4-methylthiazol-5-yl)benzyl)-1-((S)-2-(1-fluorocyclopropane-1-carboxamido)-3,3-dimethylbutanoyl)-4-hydroxypyrrolidine-2-carboxamide]
97.2 | 99.9 | CC(=O)N[C@H](C(=O)N1C[C@H](O)C[C@H]1C(=O)NCc1ccc(-c2scnc2C)cc1O[C@H]1CC[C@H](C(=O)N2CC(Nc3cccc(Sc4cnc(N5CCC6(CC5)CO[C@@H](C)[C@H]6N)cn4)c3Cl)C2)CC1)C(C)(C)C [Example 29, (2S,4R)-1-((S)-2-acetamido-3,3-dimethylbutanoyl)-N-(2-(((1r,4S)-4-(3-((3-((5-((3S,4S)-4-amino-3-methyl-2-oxa-8-azaspiro[4.5]decan-8-yl)pyrazin-2-yl)thio)-2-chlorophenyl)amino)azetidine-1-carbonyl)cyclohexyl)oxy)-4-(4-methylthiazol-5-yl)benzyl)-4-hydroxypyrrolidine-2-carboxamide]
91.5 | 99.8 | Cc1ncsc1-c1ccc(CNC(=O)[C@@H]2C[C@@H](O)CN2C(=O)[C@@H](NC(=O)C2(F)CC2)C(C)(C)C)c(OC2CCN(C(=O)CC3(O)CCN(c4nccc(Sc5cnc(N6CCC(C)(CN)CC6)cn5)c4Cl)CC3)CC2)c1 [Example 72, (2S,4R)—N-(2-((1-(2-(1-(4-((5-(4-(aminomethyl)-4-methylpiperidin-1-yl)pyrazin-2-yl)thio)-3-chloropyridin-2-yl)-4-hydroxypiperidin-4-yl)acetyl)piperidin-4-yl)oxy)-4-(4-methylthiazol-5-yl)benzyl)-1-((S)-2-(1-fluorocyclopropane-1-carboxamido)-3,3-dimethylbutanoyl)-4-hydroxypyrrolidine-2-carboxamide]
65.8 | 97.7 | Cc1ncsc1-c1ccc(CNC(=O)[C@@H]2C[C@@H](O)CN2C(=O)[C@@H](NC(=O)C2(F)CC2)C(C)(C)C)c(OC2CN(C(=O)C3CCN(c4nccc(Sc5cnc(N6CCC(C)(CN)CC6)cn5)c4Cl)CC3)C2)c1 [Example 73, (2S,4R)—N-(2-((1-(1-(4-((5-(4-(aminomethyl)-4-methylpiperidin-1-yl)pyrazin-2-yl)thio)-3-chloropyridin-2-yl)piperidine-4-carbonyl)azetidin-3-yl)oxy)-4-(4-methylthiazol-5-yl)benzyl)-1-((S)-2-(1-fluorocyclopropane-1-carboxamido)-3,3-dimethylbutanoyl)-4-hydroxypyrrolidine-2-carboxamide]

From patent US20260144788A1, “COMPOUND FOR SHP2 PROTEIN DEGRADATION AND MEDICAL USES THEREOF” (UBIX THERAPEUTICS, INC., priority 2022, published 2026)
